The test system of the experiment is Balb/c mice. As to the kind of experiment: Polypeptide chip-based vaccine immunogenicity scoring system. It counts as in vivo. More on the design: key to A2: whether the 95 percentile of the last sampling is increased compared with the end point: Y = rise; N = no rise. As to conditions: Embodiment III, polypeptide-KLH; for A1: difference between a highest median and a D 0 median (95 percentile) / A2: whether the 95 percentile of the last sampling is increased compared with the end point: Mix1-10; for Total single peptide: A*3 + B*2 + C*1; for A: 95 percentile grouping number score / B: Mouse performance score: total score = 5; for C1: #A timing-sequence response peptide fragment set / C2: #B vaccine specificity peptide fragment set / C3: Intersection of A and B / C4: Percentage of the intersection in set B / C: Timing-sequence response and specificity score: value of the whole mix. Here is the method:
Data distribution and characteristics thereof are analyzed based on a) and b), a polypeptide chip-based vaccine immunogenicity scoring system (referring to Table 7) is designed.
10 combinations are evaluated by the polypeptide chip-based vaccine immunogenicity scoring system. An evaluation method is consistent with that in Embodiment II. Evaluation results are show in the table below.
This embodiment is consistent with Embodiment II. Each combination is evaluated by the polypeptide chip-based vaccine immunogenicity scoring system. Evaluation results are show in the table below.

For ALDPLSETKCT (SARS-CoV-2) [SEQ ID NO:4], the “B1: D 0-D 14 95 percentile rise in the number of mice” value (from here on “B1: D 0-D 14 95 percentile rise”) is given as 2, the “B2: D 0-D 21 95 percentile rise in the number of mice” value (“B2: D 0-D 21 95 percentile rise” below) is on record as 3, the “B3: D 14-D 21 95 percentile rise in the number of mice” value (shortened to “B3: D 14-D 21 95 percentile rise”) is on record as 2 and the “B4: D 21-D 28 95 percentile rise in the number of mice” value (from here on “B4: D 21-D 28 95 percentile rise”) came to 0. For the same sequence, the “A1: difference between a highest median and a D 0 median (95 percentile)” value is recorded as 0.15; the “A2: whether the 95 percentile of the last sampling is increased compared with the end point” value is given as “N”; the Total single peptide was determined as 17.7; the “A: 95 percentile grouping number score” value is 4.5. The “B: Mouse performance score” value is 1.6; the “C1: #A timing-sequence response peptide fragment set” value is 1494; the “C2: #B vaccine specificity peptide fragment set” value is recorded as 190; the “C3: Intersection of A and B” value was 2. The “C4: Percentage of the intersection in set B” value (“C4: Percentage” for short) was determined as 1.053; the “C: Timing-sequence response and specificity score” value was found to be 1.
For the sequence ALNTPKDH (SARS-CoV-2) [SEQ ID NO:19], the “B1: D 0-D 14 95 percentile rise” value is 3, the “B2: D 0-D 21 95 percentile rise” value is listed as 3, the “B3: D 14-D 21 95 percentile rise” value came to 0 and the “B4: D 21-D 28 95 percentile rise” value came out at 1. In addition, the “A1: difference between a highest median and a D 0 median (95 percentile)” value is 0.12; the “A2: whether the 95 percentile of the last sampling is increased compared with the end point” value is recorded as “N”; the Total single peptide was found to be 17.9; the “A: 95 percentile grouping number score” value was 4.5. For the same sequence, the “B: Mouse performance score” value turned out to be 1.7; the “C1: #A timing-sequence response peptide fragment set” value is given as 288; the “C2: #B vaccine specificity peptide fragment set” value came to 268; the “C3: Intersection of A and B” value stood at 4. The “C4: Percentage” value was found to be 1.493; the “C: Timing-sequence response and specificity score” value is recorded as 1.
As to DNQDLNGNWY (SARS-CoV-2) [SEQ ID NO:31], the “B1: D 0-D 14 95 percentile rise” value came out at 2, the “B2: D 0-D 21 95 percentile rise” value was found to be 3, the “B3: D 14-D 21 95 percentile rise” value came out at 2 and the “B4: D 21-D 28 95 percentile rise” value came out at 0. The “A1: difference between a highest median and a D 0 median (95 percentile)” value turned out to be 0.93; the “A2: whether the 95 percentile of the last sampling is increased compared with the end point” value was “N”; the Total single peptide is 14.2; the “A: 95 percentile grouping number score” value worked out at 3.5. Further, the “B: Mouse performance score” value was found to be 1.6; the “C1: #A timing-sequence response peptide fragment set” value came out at 511; the “C2: #B vaccine specificity peptide fragment set” value is listed as 364; the “C3: Intersection of A and B” value is listed as 1. Also, the “C4: Percentage” value is given as 0.275; the “C: Timing-sequence response and specificity score” value is 0.5.
DSFKEELDKY (SARS-CoV-2) [SEQ ID NO:33]: the “B1: D 0-D 14 95 percentile rise” value worked out at 3, the “B2: D 0-D 21 95 percentile rise” value worked out at 3, the “B3: D 14-D 21 95 percentile rise” value is given as 1 and the “B4: D 21-D 28 95 percentile rise” value came to 1. Besides, the “A1: difference between a highest median and a D 0 median (95 percentile)” value is listed as 0.13; the “A2: whether the 95 percentile of the last sampling is increased compared with the end point” value is on record as “N”; the Total single peptide came out at 18.3; the “A: 95 percentile grouping number score” value worked out at 4.5. Further, the “B: Mouse performance score” value was 1.9; the “C1: #A timing-sequence response peptide fragment set” value was found to be 288; the “C2: #B vaccine specificity peptide fragment set” value is reported as 268; the “C3: Intersection of A and B” value was 4. Moreover, the “C4: Percentage” value was 1.493; the “C: Timing-sequence response and specificity score” value was 1.
Consider DYNYKLPDD (SARS-CoV-2) [SEQ ID NO:11], for which the “B1: D 0-D 14 95 percentile rise” value is recorded as 3, the “B2: D 0-D 21 95 percentile rise” value stood at 3, the “B3: D 14-D 21 95 percentile rise” value was 1 and the “B4: D 21-D 28 95 percentile rise” value is on record as 2. Further, the “A1: difference between a highest median and a D 0 median (95 percentile)” value was 0.12; the “A2: whether the 95 percentile of the last sampling is increased compared with the end point” value was “Y”; the Total single peptide was 20.2; the “A: 95 percentile grouping number score” value worked out at 5. Moreover, the “B: Mouse performance score” value turned out to be 2.1; the “C1: #A timing-sequence response peptide fragment set” value is 288; the “C2: #B vaccine specificity peptide fragment set” value is 268; the “C3: Intersection of A and B” value is 4. For the same sequence, the “C4: Percentage” value is 1.493; the “C: Timing-sequence response and specificity score” value is given as 1.
Turning to ECVLGQSKR (SARS-CoV-2) [SEQ ID NO:10], the “B1: D 0-D 14 95 percentile rise” value stood at 3, the “B2: D 0-D 21 95 percentile rise” value is on record as 3, the “B3: D 14-D 21 95 percentile rise” value amounted to 1 and the “B4: D 21-D 28 95 percentile rise” value is listed as 0. Besides, the “A1: difference between a highest median and a D 0 median (95 percentile)” value stood at 0.11; the “A2: whether the 95 percentile of the last sampling is increased compared with the end point” value is given as “N”; the Total single peptide was determined as 17.9; the “A: 95 percentile grouping number score” value is recorded as 4.5. For the same sequence, the “B: Mouse performance score” value was found to be 1.7; the “C1: #A timing-sequence response peptide fragment set” value worked out at 1494; the “C2: #B vaccine specificity peptide fragment set” value is reported as 190; the “C3: Intersection of A and B” value amounted to 2. For the same sequence, the “C4: Percentage” value worked out at 1.053; the “C: Timing-sequence response and specificity score” value turned out to be 1.
Consider ERSEKSYEL (SARS-CoV-2) [SEQ ID NO:28], for which the “B1: D 0-D 14 95 percentile rise” value is reported as 1, the “B2: D 0-D 21 95 percentile rise” value came to 2, the “B3: D 14-D 21 95 percentile rise” value is 0 and the “B4: D 21-D 28 95 percentile rise” value was 1. Besides, the “A1: difference between a highest median and a D 0 median (95 percentile)” value was determined as 0.11; the “A2: whether the 95 percentile of the last sampling is increased compared with the end point” value is listed as “N”; the Total single peptide is 14.3; the “A: 95 percentile grouping number score” value is 4. The “B: Mouse performance score” value is listed as 0.9; the “C1: #A timing-sequence response peptide fragment set” value came to 1212; the “C2: #B vaccine specificity peptide fragment set” value came out at 389; the “C3: Intersection of A and B” value is recorded as 1. For the same sequence, the “C4: Percentage” value is listed as 0.257; the “C: Timing-sequence response and specificity score” value is 0.5.
Regarding ETSNSFDVLKSE [SEQ ID NO:30], the “B1: D 0-D 14 95 percentile rise” value amounted to 2, the “B2: D 0-D 21 95 percentile rise” value is given as 2, the “B3: D 14-D 21 95 percentile rise” value is on record as 2 and the “B4: D 21-D 28 95 percentile rise” value is 1. For the same sequence, the “A1: difference between a highest median and a D 0 median (95 percentile)” value is given as 0.02; the “A2: whether the 95 percentile of the last sampling is increased compared with the end point” value is given as “N”; the Total single peptide came out at 6.7; the “A: 95 percentile grouping number score” value came to 1. The “B: Mouse performance score” value turned out to be 1.6; the “C1: #A timing-sequence response peptide fragment set” value was found to be 230; the “C2: #B vaccine specificity peptide fragment set” value amounted to 251; the “C3: Intersection of A and B” value was 1. Also, the “C4: Percentage” value was 0.398; the “C: Timing-sequence response and specificity score” value came to 0.5.
Turning to EVFAQVKQIY (SARS-CoV-2) [SEQ ID NO:13], the “B1: D 0-D 14 95 percentile rise” value is listed as 3, the “B2: D 0-D 21 95 percentile rise” value turned out to be 3, the “B3: D 14-D 21 95 percentile rise” value was 0 and the “B4: D 21-D 28 95 percentile rise” value is recorded as 2. Further, the “A1: difference between a highest median and a D 0 median (95 percentile)” value amounted to 0.08; the “A2: whether the 95 percentile of the last sampling is increased compared with the end point” value is recorded as “Y”; the Total single peptide was found to be 14.8; the “A: 95 percentile grouping number score” value is reported as 3.5. The “B: Mouse performance score” value worked out at 1.9; the “C1: #A timing-sequence response peptide fragment set” value is 1212; the “C2: #B vaccine specificity peptide fragment set” value amounted to 389; the “C3: Intersection of A and B” value is on record as 1. The “C4: Percentage” value amounted to 0.257; the “C: Timing-sequence response and specificity score” value is 0.5.
For the sequence FHPLADNKF (SARS-CoV-2) [SEQ ID NO:17], the “B1: D 0-D 14 95 percentile rise” value came out at 3, the “B2: D 0-D 21 95 percentile rise” value was 2, the “B3: D 14-D 21 95 percentile rise” value is given as 0 and the “B4: D 21-D 28 95 percentile rise” value is reported as 2. Besides, the “A1: difference between a highest median and a D 0 median (95 percentile)” value is 0.10; the “A2: whether the 95 percentile of the last sampling is increased compared with the end point” value was “Y”; the Total single peptide stood at 17.4; the “A: 95 percentile grouping number score” value is listed as 4.5. Besides, the “B: Mouse performance score” value is listed as 1.7; the “C1: #A timing-sequence response peptide fragment set” value is given as 133; the “C2: #B vaccine specificity peptide fragment set” value was 431; the “C3: Intersection of A and B” value stood at 1. For the same sequence, the “C4: Percentage” value turned out to be 0.232; the “C: Timing-sequence response and specificity score” value is 0.5.
Regarding GRLQSLQTY (SARS-CoV-2) [SEQ ID NO:5], the “B1: D 0-D 14 95 percentile rise” value stood at 3, the “B2: D 0-D 21 95 percentile rise” value came to 2, the “B3: D 14-D 21 95 percentile rise” value is 0 and the “B4: D 21-D 28 95 percentile rise” value was 2. Further, the “A1: difference between a highest median and a D 0 median (95 percentile)” value came out at 0.11; the “A2: whether the 95 percentile of the last sampling is increased compared with the end point” value is “Y”; the Total single peptide turned out to be 18.9; the “A: 95 percentile grouping number score” value was found to be 5. In addition, the “B: Mouse performance score” value is listed as 1.7; the “C1: #A timing-sequence response peptide fragment set” value was 133; the “C2: #B vaccine specificity peptide fragment set” value was 431; the “C3: Intersection of A and B” value is recorded as 1. For the same sequence, the “C4: Percentage” value is 0.232; the “C: Timing-sequence response and specificity score” value turned out to be 0.5.

The values above are taken from patent publication US20230136600A1, “Method and device for screening antigen epitope polypeptide” (priority 2020, published 2023).
